The record followed here is patent publication US9856216B2, “Compounds as TNIK, IKKε and TBK1 inhibitors and pharmaceutical composition comprising same” (GREEN CROSS CORPORATION, priority 2015, dated 2018).

Structures can show the parent of a compound that is named as a salt. Bounds are passed on as bounds.

T1 sequence (Q9UKE5 1-367 limits assumed): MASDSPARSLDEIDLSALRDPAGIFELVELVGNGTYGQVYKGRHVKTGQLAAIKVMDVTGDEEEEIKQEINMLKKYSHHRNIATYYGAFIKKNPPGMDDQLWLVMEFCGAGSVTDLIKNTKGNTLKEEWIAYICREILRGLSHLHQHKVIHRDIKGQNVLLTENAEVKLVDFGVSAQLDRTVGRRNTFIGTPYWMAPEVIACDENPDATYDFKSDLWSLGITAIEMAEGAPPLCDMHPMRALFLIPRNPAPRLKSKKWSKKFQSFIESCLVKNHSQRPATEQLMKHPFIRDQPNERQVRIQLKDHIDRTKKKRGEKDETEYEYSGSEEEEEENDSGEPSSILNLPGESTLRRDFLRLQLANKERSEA

One assay concerns the target T1, TNIK (Homo sapiens, UniProt Q9UKE5).
T1 construct: purchased Promega V4158
Nature of the assay: ADP-Glo Kinase Assay, inhibition activity on TNIK. In kind it is biochemical.
Conditions: not given
The procedure: The inhibition activities on TNIK, IKKε and TBK1 were measured by a luminometer, TNIK/IKKε/TBK1 Kinase Enzyme System (Promega, Ca# V4158; Invitrogen, PR8031B, Promega, Ca# V3991) and ADP-Glo Kinase Assay using ADP-Glo™ Kinase Analysis Kit (Promega, Ca# V9101) and a kinase reaction buffer [40 mM Tris(pH 7.5), 20 mM MgCl2, 0.1 mg/mL BSA] in accordance with the manufacturer's protocol.
Turning to `O=C(Nc1ccc(-c2ccc(F)nc2)c2c1C(=O)NC2)c1ccccc1` [Example 199, N-(7-(6-fluoropyridin-3-yl)-3-oxoisoindolin-4-yl)benzamide], the “TNIK (μM)” value is given as “Insoluble”.

Still in this assay, the particulars now being: read-out: TNIK.
As to `COc1ccc(C(=O)Nc2ccc(-c3ccc(C(C)=O)cc3)c3c2C(=O)NC3)cc1` [Example 204, N-(7-(4-acetylphenyl)-3-oxoisoindolin-4-yl)-4-methoxy benzamide], the IC50 was over 20000 nM.
Still for that read-out and setting: to `CC(C)Oc1ccccc1-c1ccc(NC(=O)c2ccccc2)c2c1CNC2=O` [Example 6, N-(7-(2-isopropoxyphenyl)-3-oxoisoindolin-4-yl)benzamide] belongs over 20000 nM; to `CN(C)CCCNc1ccc(C(=O)Nc2ccc(-c3ccccc3)c3c2C(=O)NC3)cc1` [Example 381, 4-((3-(Dimethylamino)propyl)amino)-N-(3-oxo-7-phenylisoindolin-4-yl) benzamide], 310 nM.
Still for that read-out and setting: under `COc1cccc(-c2ccc(NC(=O)c3ccc(OCCN4CCOCC4)cc3)c3c2CNC3=O)c1OC` [Example 347, N-(7-(2,3-dimethoxyphenyl)-3-oxoisoindolin-4-yl)-4-(2-morpholinoethoxy)benzamide] stands 200 nM; under `O=C(Nc1ccc(Nc2cccc(Cl)c2)c2c1C(=O)NC2)c1ccc(NCCN2CCCCC2)cc1` [Example 456, N-(7-((3-chlorophenyl)amino)-3-oxoisoindolin-4-yl)-4-((2-(piperidin-1-yl)ethyl)amino)benzamide], 340 nM; under `COc1cccc(-c2ccc(NC(=O)c3ccco3)c3c2CN(C(=O)c2ccco2)C3=O)c1OC` [Example 224, N-(7-(2,3-dimethoxyphenyl)-2-(furan-2-carbonyl)-3-oxoisoindolin-4-yl)furan-2-carboxamide], 1000 nM.
Same read-out and setting: under `O=C(Nc1ccc(Nc2ccccc2)c2c1C(=O)NC2)c1ccc(NCCCCO)cc1` [Example 484, 4-((4-Hydroxybutyl)amino)-N-(3-oxo-7-(phenylamino)isoindolin-4-yl)benzamide] stands 290 nM; under `CSc1ccccc1-c1ccc(NC(=O)c2ccccc2)c2c1CNC2=O` [Example 14, N-(7-(2-(methylthio)phenyl)-3-oxoisoindolin-4-yl)benzamide], 1100 nM; under `O=C(Nc1ccc(-c2ccncc2)c2c1C(=O)NC2)c1ccccc1` [Example 128, N-(3-oxo-7-(pyridin-4-yl)isoindolin-4-yl)benzamide hydrochloride], over 20000 nM.
With `O=C(Nc1ccc(-c2cccc(F)c2)c2c1C(=O)NC2)c1ccccc1` [Example 151, N-(7-(3-fluorophenyl)-3-oxoisoindolin-4-yl)benzamide], the IC50 was found to be 1500 nM.
In the case of `COc1ccc(C(=O)Nc2ccc(Nc3ccccc3)c3c2C(=O)NC3)cc1` [Example 433, 4-Methoxy-N-(3-oxo-7-(phenylamino)isoindolin-4-yl) benzamide], the IC50 was determined as 400 nM.
Still for that read-out and setting: under `NCCCNc1ccc(C(=O)Nc2ccc(Nc3ccccc3)c3c2C(=O)NC3)cc1` [Example 486, 4-((3-Aminopropyl)amino)-N-(3-oxo-7-(phenylamino)isoindolin-4-yl)benzamide] stands 200 nM; under `O=C1NCc2c(-c3ccccc3)ccc(NCCN3CCOCC3)c21` [Example 260, 7-((2-Morpholinoethyl)amino)-4-phenylisoindolin-1-one], over 20000 nM; under `N#Cc1cccc(-c2ccc(NC(=O)c3ccccc3)c3c2CNC3=O)c1` [Example 147, N-(7-(3-cyanophenyl)-3-oxoisoindolin-4-yl)benzamide], over 20000 nM.
Still for that read-out and setting: to `Cc1cc(C)cc(-c2ccc(NC(=O)c3ccccc3)c3c2CNC3=O)c1` [Example 27, N-(7-(3,5-dimethylphenyl)-3-oxoisoindolin-4-yl)benzamide] belongs 3000 nM; to `COCCNc1ccc(C(=O)Nc2ccc(-c3ccco3)c3c2C(=O)NC3)cc1` [Example 288, N-(7-(furan-2-yl)-3-oxoisoindolin-4-yl)-4-((2-methoxyethyl)amino)benzamide], 450 nM.
